Source: PubChem BioAssay (NCI)
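Interpolation was linear, between the two tested concentrations surrounding the appropriate level; five concentrations were tested over 48 hours in 96-well plates. At the TGI there is no net growth.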

test system: 786-0 renal; test: NCI anticancer screen, dose series, 48 h

| Compound | TGI [µM] |
| --- | --- |
| COc1ccc(N=NC(=O)NC(CC(C)C)C(=O)NC(CC(C)C)C(=O)O)cc1 (stereo not given) | > 100 |
| CC(C)=NNC1=NC(C)(C)P(=O)(NNc2ncccn2)S1 (stereo not given) | > 100 |
| NC12CC3C4CC5(N)CC3C(C1)C(C5)C4C2 | > 100 |
| C[n+]1c2ccccc2c2/c(=C\C#N)c3ccccc3n21 | 14.8 |
| COc1cc(/C=N/NC(=O)c2c(Cl)c(Cl)c(Cl)c(Cl)c2-c2nc3ccccc3[nH]2)ccc1O | > 100 |

test system: A498 renal; test: NCI anticancer screen, dose series, 48 h

| Compound | TGI [µM] |
| --- | --- |
| COc1ccc(N=NC(=O)NC(CC(C)C)C(=O)NC(CC(C)C)C(=O)O)cc1 (stereo not given) | > 100 |
| CC(C)=NNC1=NC(C)(C)P(=O)(NNc2ncccn2)S1 (stereo not given) | > 100 |
| NC12CC3C4CC5(N)CC3C(C1)C(C5)C4C2 | > 100 |
| C[n+]1c2ccccc2c2/c(=C\C#N)c3ccccc3n21 | 82.8 |
| COc1cc(/C=N/NC(=O)c2c(Cl)c(Cl)c(Cl)c(Cl)c2-c2nc3ccccc3[nH]2)ccc1O | 61.4 |

test system: A549 NSCLC; test: NCI anticancer screen, dose series, 48 h

| Compound | TGI [µM] |
| --- | --- |
| COc1ccc(N=NC(=O)NC(CC(C)C)C(=O)NC(CC(C)C)C(=O)O)cc1 (stereo not given) | > 100 |
| CC(C)=NNC1=NC(C)(C)P(=O)(NNc2ncccn2)S1 (stereo not given) | > 100 |
| NC12CC3C4CC5(N)CC3C(C1)C(C5)C4C2 | > 100 |
| C[n+]1c2ccccc2c2/c(=C\C#N)c3ccccc3n21 | 32.9 |
| COc1cc(/C=N/NC(=O)c2c(Cl)c(Cl)c(Cl)c(Cl)c2-c2nc3ccccc3[nH]2)ccc1O | > 100 |

test system: ACHN renal; test: NCI anticancer screen, dose series, 48 h

| Compound | TGI [µM] |
| --- | --- |
| COc1ccc(N=NC(=O)NC(CC(C)C)C(=O)NC(CC(C)C)C(=O)O)cc1 (stereo not given) | 80.2 |
| CC(C)=NNC1=NC(C)(C)P(=O)(NNc2ncccn2)S1 (stereo not given) | > 100 |
| NC12CC3C4CC5(N)CC3C(C1)C(C5)C4C2 | > 100 |
| C[n+]1c2ccccc2c2/c(=C\C#N)c3ccccc3n21 | 18.5 |
| COc1cc(/C=N/NC(=O)c2c(Cl)c(Cl)c(Cl)c(Cl)c2-c2nc3ccccc3[nH]2)ccc1O | 62.5 |

test system: BT-549 breast; test: NCI anticancer screen, dose series, 48 h

| Compound | TGI [µM] |
| --- | --- |
| COc1ccc(N=NC(=O)NC(CC(C)C)C(=O)NC(CC(C)C)C(=O)O)cc1 (stereo not given) | > 100 |
| CC(C)=NNC1=NC(C)(C)P(=O)(NNc2ncccn2)S1 (stereo not given) | > 100 |
| NC12CC3C4CC5(N)CC3C(C1)C(C5)C4C2 | > 100 |
| C[n+]1c2ccccc2c2/c(=C\C#N)c3ccccc3n21 | 8.42 |
| COc1cc(/C=N/NC(=O)c2c(Cl)c(Cl)c(Cl)c(Cl)c2-c2nc3ccccc3[nH]2)ccc1O | 67.2 |

test system: CAKI-1 renal; test: NCI anticancer screen, dose series, 48 h

| Compound | TGI [µM] |
| --- | --- |
| COc1ccc(N=NC(=O)NC(CC(C)C)C(=O)NC(CC(C)C)C(=O)O)cc1 (stereo not given) | > 100 |
| CC(C)=NNC1=NC(C)(C)P(=O)(NNc2ncccn2)S1 (stereo not given) | > 100 |
| NC12CC3C4CC5(N)CC3C(C1)C(C5)C4C2 | > 100 |
| C[n+]1c2ccccc2c2/c(=C\C#N)c3ccccc3n21 | 95.4 |
| COc1cc(/C=N/NC(=O)c2c(Cl)c(Cl)c(Cl)c(Cl)c2-c2nc3ccccc3[nH]2)ccc1O | 49.8 |

test system: CCRF-CEM leukemia; test: NCI anticancer screen, dose series, 48 h

| Compound | TGI [µM] |
| --- | --- |
| COc1ccc(N=NC(=O)NC(CC(C)C)C(=O)NC(CC(C)C)C(=O)O)cc1 (stereo not given) | > 100 |
| NC12CC3C4CC5(N)CC3C(C1)C(C5)C4C2 | > 100 |
| C[n+]1c2ccccc2c2/c(=C\C#N)c3ccccc3n21 | 50.2 |
| COc1cc(/C=N/NC(=O)c2c(Cl)c(Cl)c(Cl)c(Cl)c2-c2nc3ccccc3[nH]2)ccc1O | > 100 |

test system: COLO 205 colon; test: NCI anticancer screen, dose series, 48 h

| Compound | TGI [µM] |
| --- | --- |
| COc1ccc(N=NC(=O)NC(CC(C)C)C(=O)NC(CC(C)C)C(=O)O)cc1 (stereo not given) | 49.5 |
| NC12CC3C4CC5(N)CC3C(C1)C(C5)C4C2 | > 100 |
| C[n+]1c2ccccc2c2/c(=C\C#N)c3ccccc3n21 | 4.87 |
| COc1cc(/C=N/NC(=O)c2c(Cl)c(Cl)c(Cl)c(Cl)c2-c2nc3ccccc3[nH]2)ccc1O | 73 |

test system: DU-145 prostate; test: NCI anticancer screen, dose series, 48 h

| Compound | TGI [µM] |
| --- | --- |
| COc1ccc(N=NC(=O)NC(CC(C)C)C(=O)NC(CC(C)C)C(=O)O)cc1 (stereo not given) | > 100 |
| CC(C)=NNC1=NC(C)(C)P(=O)(NNc2ncccn2)S1 (stereo not given) | > 100 |
| C[n+]1c2ccccc2c2/c(=C\C#N)c3ccccc3n21 | 45.8 |
| COc1cc(/C=N/NC(=O)c2c(Cl)c(Cl)c(Cl)c(Cl)c2-c2nc3ccccc3[nH]2)ccc1O | 56.5 |

test system: EKVX NSCLC; test: NCI anticancer screen, dose series, 48 h

| Compound | TGI [µM] |
| --- | --- |
| COc1ccc(N=NC(=O)NC(CC(C)C)C(=O)NC(CC(C)C)C(=O)O)cc1 (stereo not given) | > 100 |
| CC(C)=NNC1=NC(C)(C)P(=O)(NNc2ncccn2)S1 (stereo not given) | > 100 |
| NC12CC3C4CC5(N)CC3C(C1)C(C5)C4C2 | > 100 |
| C[n+]1c2ccccc2c2/c(=C\C#N)c3ccccc3n21 | 6.54 |
| COc1cc(/C=N/NC(=O)c2c(Cl)c(Cl)c(Cl)c(Cl)c2-c2nc3ccccc3[nH]2)ccc1O | 82.6 |

test system: HCC-2998 colon; test: NCI anticancer screen, dose series, 48 h

| Compound | TGI [µM] |
| --- | --- |
| COc1ccc(N=NC(=O)NC(CC(C)C)C(=O)NC(CC(C)C)C(=O)O)cc1 (stereo not given) | > 100 |
| CC(C)=NNC1=NC(C)(C)P(=O)(NNc2ncccn2)S1 (stereo not given) | > 100 |
| C[n+]1c2ccccc2c2/c(=C\C#N)c3ccccc3n21 | 5.27 |
| COc1cc(/C=N/NC(=O)c2c(Cl)c(Cl)c(Cl)c(Cl)c2-c2nc3ccccc3[nH]2)ccc1O | 33.5 |

test system: HCT-116 colon; test: NCI anticancer screen, dose series, 48 h

| Compound | TGI [µM] |
| --- | --- |
| COc1ccc(N=NC(=O)NC(CC(C)C)C(=O)NC(CC(C)C)C(=O)O)cc1 (stereo not given) | > 100 |
| CC(C)=NNC1=NC(C)(C)P(=O)(NNc2ncccn2)S1 (stereo not given) | > 100 |
| NC12CC3C4CC5(N)CC3C(C1)C(C5)C4C2 | > 100 |
| C[n+]1c2ccccc2c2/c(=C\C#N)c3ccccc3n21 | 8.45 |
| COc1cc(/C=N/NC(=O)c2c(Cl)c(Cl)c(Cl)c(Cl)c2-c2nc3ccccc3[nH]2)ccc1O | 43.6 |

test system: HCT-15 colon; test: NCI anticancer screen, dose series, 48 h

| Compound | TGI [µM] |
| --- | --- |
| COc1ccc(N=NC(=O)NC(CC(C)C)C(=O)NC(CC(C)C)C(=O)O)cc1 (stereo not given) | > 100 |
| CC(C)=NNC1=NC(C)(C)P(=O)(NNc2ncccn2)S1 (stereo not given) | > 100 |
| NC12CC3C4CC5(N)CC3C(C1)C(C5)C4C2 | > 100 |
| C[n+]1c2ccccc2c2/c(=C\C#N)c3ccccc3n21 | 97.2 |
| COc1cc(/C=N/NC(=O)c2c(Cl)c(Cl)c(Cl)c(Cl)c2-c2nc3ccccc3[nH]2)ccc1O | 79.2 |

test system: HL-60(TB) leukemia; test: NCI anticancer screen, dose series, 48 h

| Compound | TGI [µM] |
| --- | --- |
| COc1ccc(N=NC(=O)NC(CC(C)C)C(=O)NC(CC(C)C)C(=O)O)cc1 (stereo not given) | > 100 |
| NC12CC3C4CC5(N)CC3C(C1)C(C5)C4C2 | > 100 |
| C[n+]1c2ccccc2c2/c(=C\C#N)c3ccccc3n21 | 26.3 |
| COc1cc(/C=N/NC(=O)c2c(Cl)c(Cl)c(Cl)c(Cl)c2-c2nc3ccccc3[nH]2)ccc1O | 53.2 |
